Measurements: patent US8114629B2, “Site specific incorporation of keto amino acids into proteins” (The Scripps Research Institute, priority 2002, dated 2012)
In brackets after ≈: the same amount, converted by molar mass. Where two headings read alike, the source gives them in different places.

Experiments:
[1] = tested on: E. coli DH10B cells; assay: growth of cells in the presence of the unnatural amino acid during Z domain expression; settings: 1 mM; cells transformed with mutRNA^TyrCUA, LW1RS and Z domain gene (Lys7TAG)
Procedure: E. coli DH10B cells cotransformed with pLEIZ and pBK-LW1RS were grown in minimal media containing 1% glycerol and 0.3 mM leucine (GMML media) with 25 μg/mL kanamycin, 34 μg/mL of chloramphenicol, and 1.0 mM p-acetyl-(±)-phenylalanine. When cells reach an OD600 of 0.5, isopropyl-β-D-thiogalactopyranoside (IPTG) (1 mM) was added to induce protein expression.
Cells transformed with the mutRNA^TyrCUA, LW1RS and Z domain gene (Lys7TAG) were grown in the presence of 1 mM p-acetyl-(±)-phenylalanine.

[2] = tested on: E. coli cells expressing mutant TyrRS and mutRNA^TyrCUA; assay: in vivo assay based on suppression of the Asp112TAG codon in the CAT gene (chloramphenicol resistance), p-acetyl-L-phenylalanine synthetases; assay type: cell-based; settings: Escherichia coli, read-out: IC50 value chloramphenicol, eleven mutant TyrRS
[3] = tested on: cells harboring the one of the three mutant TyrRS plasmids; assay: chloramphenicol resistance of cells harboring mutant TyrRS plasmids selected for m-acetyl phenylalanine; assay type: cell-based
Source text: Preparation of mutant TyrRS library plasmids: A library of plasmids encoding mutant M. jannaschii TryRSs directed at meta-substituted tyrosine derivatives was constructed, generally following the methods described in Example 1 of WO 2002/085923. Briefly, six residues (Tyr^32, Ala^67, His^70, Gln^155, Asp^158, Ala^167) in the active site of M. jannaschii TyrRS that are within 6.9 Å of the meta-position of the aryl ring of bound tyrosine in the crystal structure of Bacillus stearothermophilus TyrRS were mutated to all 20 amino acids at DNA level using the NNK codon scheme as described in Example 1 above. The constructed plasmid library pBK-lib contained around 1×10^9 independent clones.
Evolution of orthogonal tRNA-synthetase pairs for incorporation of m-acetyl phenylalanine: After 3 rounds of positive selection and 2 rounds of negative selection, five candidate clones (SEQ ID NO: 17-21 of WO 2002/085923 and SEQ ID NO: 49-53 of WO 2002/085923) emerged whose survival in chloramphenicol was dependent on the addition of the unnatural amino acid. In the absence of m-acetyl phenylalanine, the IC50 of chloramphenicol resistance for cells harboring the one of the three mutant TyrRS plasmids is 20 μg/ml. In the presence of m-acetyl phenylalanine, the IC50 of resistance to chloramphenicol for the same cells is 100 μg/ml. […]

[4] = molecular target: T1, mutRNA^TyrCUA/LW1RS (Methanocaldococcus jannaschii, UniProt Q57834, D158G/I159C/L162R/Y32L); assay type: cell-based, Methanococcus jannaschii; settings: mutant Z domain (Lys7TAG); from signal-to-noise ratio of more than 1500 in the intact protein mass spectrum
T1 construct: The mutant synthetase gene isolated from clone LW1 (LW1RS) was encoded in plasmid pBKLW1RS; expressed in transfected cells; host or cells: E. coli DH10B cotransformed with pLEIZ and pBK-LW1RS
T1 sequence (Q57834 whole entry Y32L/D158G/I159C/L162R): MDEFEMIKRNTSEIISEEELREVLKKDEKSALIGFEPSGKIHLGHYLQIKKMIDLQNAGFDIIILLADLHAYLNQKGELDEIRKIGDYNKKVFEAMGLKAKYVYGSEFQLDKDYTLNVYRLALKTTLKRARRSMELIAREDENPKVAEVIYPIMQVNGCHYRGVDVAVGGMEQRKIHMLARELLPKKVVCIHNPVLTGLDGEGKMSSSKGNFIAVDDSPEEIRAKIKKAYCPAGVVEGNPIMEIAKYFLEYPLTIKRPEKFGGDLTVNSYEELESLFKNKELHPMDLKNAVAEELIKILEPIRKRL
Source text: Protein expression and purification: Plasmid pLEIZ was used to express the Z-domain gene with an amber codon at the 7th position and a COOH-terminal His6 tag under the control of a bacteriophage T5 promoter and t0 terminator, and the mutRNA^TyrCUA gene under the control of the lpp promoter and rrnC terminator. The mutant synthetase gene isolated from clone LW1 (LW1RS) was encoded in plasmid pBKLW1RS under the control of the constitutive E. coli GlnRS promoter and terminator. E. coli DH10B cells cotransformed with pLEIZ and pBK-LW1RS were grown in minimal media containing 1% glycerol and 0.3 mM leucine (GMML media) with 25 μg/mL kanamycin, 34 μg/mL of chloramphenicol, and 1.0 mM p-acetyl-(±)-phenylalanine. When cells reach an OD600 of 0.5, isopropyl-β-D-thiogalactopyranoside (IPTG) (1 mM) was added to induce protein expression. After 5 hours, cells were pelleted and the protein was purified by Ni^2+ affinity chromatography under denaturing conditions according to the manufacturer's protocol (Qiagen, Valencia, Calif.). […] The yield of protein was measured by Bradford assay (BCA kit, Biorad, Hercules, Calif.). […]
Both the wt Z domain protein expressed by mutRNA^TyrCUA/wt TyrRS and the mutant Z domain protein expressed by the mutRNA^TyrCUA/LW1RS were analyzed by electrospray ionization Fourier transform ion cyclotron resonance mass spectrometry (FT-ICR MS). […]

`CC(=O)c1ccc(CC(N)C(=O)O)cc1` (racemic) [p-acetyl-(±)-phenylalanine] was tested, and the “effect on growth rate of cells” value [1] was “did not affect the growth rate of cells”.
`O=C(N[C@H](CO)[C@H](O)c1ccc([N+](=O)[O-])cc1)C(Cl)Cl` [chloramphenicol] gave an IC50 ([2]; in the absence of p-acetyl-L-phenylalanine) of 9 µg/mL (≈ 27.9 µM), an IC50 ([2]; in the presence of p-acetyl-L-phenylalanine) of 120 µg/mL and an IC50 ([3]; in the presence of m-acetyl phenylalanine, read-out: IC50 of resistance to chloramphenicol) of 100 µg/mL. It also gave an IC50 ([3]; read-out: IC50 of chloramphenicol resistance) of 20 µg/mL (≈ 61.9 µM).
In the case of `CC(=O)c1ccc(C[C@H](N)C(=O)O)cc1` [p-acetyl-L-phenylalanine], the “fidelity for the incorporation” value [4] is reported as greater than 99.8%.
